Measured values taken from patent US7488791B2, “Mixture of peptides derived from E6 and/or E7 papillomavirus proteins and uses thereof” (priority 2001, dated 2009).

Tested on: CD4+ T lymphocytes
Assay: Proliferation assay ([3H]-thymidine incorporation) of PBMCs / cells from patients having bowenoid papulosis
Assay type: cell-based, human
Conditions: patient, DR 1501, DRB5
Description: A suspension of cells (PBMCs, CD8+ cell-depleted PBMCs, T lymphocytes pre-enriched by a step of culturing in vitro with the peptides selected according to the invention, or cloned T lymphocytes) is cultured for 3 to 5 days in the presence of the selected peptides and, as needed, of suitable presenting cells, such as dendritic cells, autologous or heterologous PBMCs, lymphoblastoid cells such as those obtained after infection with the EBV virus or genetically modified cells. The cell proliferation is measured by incorporation of tritiated thymidine into the DNA of the cells. The peptides selected in accordance with the invention make it possible to reveal, in the initial suspension, the presence of cells specific for these peptides. • as regards the ELISPOT assay:
To verify the stimulation of CD4+ T cell proliferation using immunogenic composition according to the invention, a proliferation assay is performed in vitro.
The cells (PBMCs) extracted from peripheral blood were cultured in 96-well microplates in a proportion of 2×10^5 cells per well, in a final volume of 200 μl of complete medium. The cells were or were not stimulated with 10 μg/ml of a mixture of peptides according to the invention. […] The cells were recovered and the [^3H]-thymidine incorporation was measured in a cellular DNA. […]
For `CC[C@H](C)[C@H](N)C(=O)N[C@@H](CCCNC(=N)N)C(=O)NCC(=O)N[C@@H](CCCNC(=N)N)C(=O)N[C@@H](Cc1c[nH]c2ccccc12)C(=O)N[C@H](C(=O)NCC(=O)N[C@@H](CCCNC(=N)N)C(=O)N[C@@H](CS)C(=O)N[C@@H](CCSC)C(=O)N[C@@H](CO)C(=O)N[C@@H](CS)C(=O)N[C@@H](CS)C(=O)N[C@@H](CCCNC(=N)N)C(=O)N[C@@H](CO)C(=O)N[C@@H](CO)C(=O)N[C@@H](CCCNC(=N)N)C(=O)N[C@H](C(=O)N[C@@H](CCCNC(=N)N)C(=O)N[C@@H](CCCNC(=N)N)C(=O)N[C@@H](CCC(=O)O)C(=O)N[C@H](C(=O)N[C@@H](CCC(N)=O)C(=O)N[C@@H](CC(C)C)C(=O)O)[C@@H](C)O)[C@@H](C)O)[C@@H](C)O` [E6/10], the “Prolif: peptide recognized, in terms of proliferation, by the CD4+ T lymphocytes” value was “weak”.

Tested on: DR7-restricted clone
Assay: not given
Conditions: Strang et al.; cited from earlier work
In the case of “E6: 42-57: HPV16 E6 peptide, positions 42-57, Strang et al. (QQLLRREVYDFAFRDL; UniProt P03126 42-57, looked up, fragment)”, the “Recognition by T cell clone” value is listed as “Recognized by DR7-restricted”.

Tested on: E7-specific T lymphocyte lines
Assay: not given
Conditions: Altmann et al.; cited from earlier work
In the case of “E7: 5-18: HPV16 E7 peptide, positions 5-18, Altmann et al. (TPTLHEYMLDLQPE; UniProt P03129 5-18, looked up, fragment)”, the “Recognition by T lymphocyte line or clone from a patient” value (“Recognition … from a patient” for short) is given as “Recognized by line from a DR1”. In the case of “E7: 17-34: HPV16 E7 peptide, positions 17-34, Altmann et al. (PETTDLYCYEQLNDSSEE; UniProt P03129 17-34, looked up, fragment)”, the “Recognition … from a patient” value is listed as “Recognized by line from a DR4”. In the case of “E7: 69-82: HPV16 E7 peptide, positions 69-82, Altmann et al. (VQSTHVDIRTLEDL; UniProt P03129 69-82, looked up, fragment)”, the “Recognition … from a patient” value is given as “Recognized by clone from a DR4”.

Tested on: cells from patients
Assay: not given
Conditions: Kadish et al.; cited from earlier work
In the case of `CC[C@H](C)[C@H](NC(=O)[C@@H](NC(=O)[C@@H](NC(=O)[C@H](CCC(N)=O)NC(=O)[C@H](CC(C)C)NC(=O)[C@H](CCC(=O)O)NC(=O)[C@@H](NC(=O)[C@H](CS)NC(=O)[C@H](CC(C)C)NC(=O)[C@H](CCC(N)=O)NC(=O)[C@@H]1CCCN1C(=O)[C@H](CC(C)C)NC(=O)[C@H](CCCCN)NC(=O)[C@@H](N)CCCNC(=N)N)[C@@H](C)O)[C@@H](C)O)[C@@H](C)O)C(=O)N[C@@H](Cc1c[nH]cn1)C(=O)O` [E6 17-31, R K L P Q L C T E L Q T T I H], the “Proliferation of cells from patients (CIN or normal), responders/tested” value is listed as 12/23. In the case of “E6: 1-31: HPV16 E6 peptide, positions 1-31, Kadish et al. (MHQKRTAMFQDPQERPRKLPQLCTELQTTIH; UniProt P03126 1-31, looked up, fragment)”, the “Proliferation of cells from patients (CIN or normal), responders/tested” value is listed as 17/48. In the case of “E6: 22-51: HPV16 E6 peptide, positions 22-51, Kadish et al. (LCTELQTTIHDIILECVYCKQQLLRREVYD; UniProt P03126 22-51, looked up, fragment)”, the “Proliferation of cells from patients (CIN or normal), responders/tested” value is given as 17/46. For “E6: 42-71: HPV16 E6 peptide, positions 42-71, Kadish et al. (QQLLRREVYDFAFRDLCIVYRDGNPYAVCD; UniProt P03126 42-71, looked up, fragment)”, the “Proliferation of cells from patients (CIN or normal), responders/tested” value is listed as 8/43. For “E6: 62-91: HPV16 E6 peptide, positions 62-91, Kadish et al. (RDGNPYAVCDKCLKFYSKISEYRHYCYSLY; UniProt P03126 62-91, looked up, fragment)”, the “Proliferation of cells from patients (CIN or normal), responders/tested” value is listed as 0/30. For “E6: 82-111: HPV16 E6 peptide, positions 82-111, Kadish et al. (EYRHYCYSLYGTTLEQQYNKPLCDLLIRCI; UniProt P03126 82-111, looked up, fragment)”, the “Proliferation of cells from patients (CIN or normal), responders/tested” value is given as 5/34. For “E6: 102-131: HPV16 E6 peptide, positions 102-131, Kadish et al. (PLCDLLIRCINCQKPLCPEEKQRHLDKKQR; UniProt P03126 102-131, looked up, fragment)”, the “Proliferation of cells from patients (CIN or normal), responders/tested” value is listed as 14/43. In the case of “E6: 117-131: HPV16 E6 peptide, positions 117-131, Kadish et al. (LCPEEKQRHLDKKQR; UniProt P03126 117-131, looked up, fragment)”, the “Proliferation of cells from patients (CIN or normal), responders/tested” value is given as 12/23. For “E6: 122-151: HPV16 E6 peptide, positions 122-151, Kadish et al. (KQRHLDKKQRFHNIRGRWTGRCMSCCRSSR; UniProt P03126 122-151, looked up, fragment)”, the “Proliferation of cells from patients (CIN or normal), responders/tested” value is given as 19/48. For “E6: 137-151: HPV16 E6 peptide, positions 137-151, Kadish et al. (GRWTGRCMSCCRSSR; UniProt P03126 137-151, looked up, fragment)”, the “Proliferation of cells from patients (CIN or normal), responders/tested” value is given as 9/23. For “E7: 62-80: HPV16 E7 peptide, positions 62-80, Kadish et al. (DSTLRLCVQSTHVDIRTLE; UniProt P03129 62-80, looked up, fragment)”, the “Proliferation of cells from patients (CIN or normal), responders/tested” value is given as 11/35. In the case of “E7: 72-97: HPV16 E7 peptide, positions 72-97, Kadish et al. (THVDIRTLEDLLMGTLGIVCPICSQK; UniProt P03129 72-97, looked up, fragment)”, the “Proliferation of cells from patients (CIN or normal), responders/tested” value is given as 19/48.

Tested on: cells from patients
Assay: not given
Conditions: De Gruijl et al.; cited from earlier work
For “E7: 1-32: HPV16 E7 peptide, positions 1-32, De Gruijl et al.”, the “Proliferation of cells from patients infected with HPV, responders/tested” value (“Proliferation … with HPV, responders/tested” for short) is listed as 8/28. In the case of “E7: 19-56: HPV16 E7 peptide, positions 19-56, De Gruijl et al. (TTDLYCYEQLNDSSEEEDEIDGPAGQAEPDRAHYNIVT; UniProt P03129 19-56, looked up, fragment)”, the “Proliferation … with HPV, responders/tested” value is given as 10/28. For “E7: 43-80: HPV16 E7 peptide, positions 43-80, De Gruijl et al. (GQAEPDRAHYNIVTFCCKCDSTLRLCVQSTHVDIRTLE; UniProt P03129 43-80, looked up, fragment)”, the “Proliferation … with HPV, responders/tested” value is given as 10/28. In the case of “E7: 67-98: HPV16 E7 peptide, positions 67-98, De Gruijl et al. (LCVQSTHVDIRTLEDLLMGTLGIVCPICSQKP; UniProt P03129 67-98, looked up, fragment)”, the “Proliferation … with HPV, responders/tested” value is given as 17/28.

Same assay, conditions: de Gruijl et al.; cited from earlier work
For “E7: 67-98: HPV16 E7 peptide, positions 67-98, De Gruijl et al. (LCVQSTHVDIRTLEDLLMGTLGIVCPICSQKP; UniProt P03129 67-98, looked up, fragment)”, the “Stimulation of the cells of patients, in words” value is given as “stimulates the cells of a majority of patients”.

Tested on: cells in the blood
Assay: not given
Conditions: Tsukui et al., 140 HPV16+ patients; cited from earlier work
In the case of “E6: 1-45: HPV16 E6 peptide, positions 1-45, Tsukui et al. (MHQKRTAMFQDPQERPRKLPQLCTELQTTIHDIILECVYCKQQLL; UniProt P03126 1-45, looked up, fragment)”, the “Secretion of IL2 (activation of cells) by patients, responders/tested” value (“Secretion of IL2 … responders/tested” for short) is listed as 0/140. For “E6: 59-112: HPV16 E6 peptide, positions 59-112, Tsukui et al. (IVYRDGNPYAVCDKCLKFYSKISEYRHYCYSLYGTTLEQQYNKPLCDLLIRCIN; UniProt P03126 59-112, looked up, fragment)”, the “Secretion of IL2 … responders/tested” value is given as 6/140. For “E6: 111-158: HPV16 E6 peptide, positions 111-158, Tsukui et al. (INCQKPLCPEEKQRHLDKKQRFHNIRGRWTGRCMSCCRSSRTRRETQL; UniProt P03126 111-158, looked up, fragment)”, the “Secretion of IL2 … responders/tested” value is listed as 11/140. For “E7: 1-35: HPV16 E7 peptide, positions 1-35, Tsukui et al.”, the “Secretion of IL2 … responders/tested” value is given as 3/140. For “E7: 27-60: HPV16 E7 peptide, positions 27-60, Tsukui et al. (QLNDSSEEEDEIDGPAGQAEPDRAHYNIVTFCCK; UniProt P03129 27-60, looked up, fragment)”, the “Secretion of IL2 … responders/tested” value is listed as 4/140. In the case of “E7: 51-98: HPV16 E7 peptide, positions 51-98, Tsukui et al. (HYNIVTFCCKCDSTLRLCVQSTHVDIRTLEDLLMGTLGIVCPICSQKP; UniProt P03129 51-98, looked up, fragment)”, the “Secretion of IL2 … responders/tested” value is given as 7/140.
